Data reported in patent publication US7740850B2, “PDGFRβ-specific antibodies” (ImClone, LLC, priority 2007, dated 2010).

Legend:
Format in all cases: binding
Settings in all cases: ✓ / X, key not given
[1] = target: T1, m5β (Mus musculus, UniProt P05622); experiment: Epitope mapping
T1 sequence (P05622 32-531 limits assumed): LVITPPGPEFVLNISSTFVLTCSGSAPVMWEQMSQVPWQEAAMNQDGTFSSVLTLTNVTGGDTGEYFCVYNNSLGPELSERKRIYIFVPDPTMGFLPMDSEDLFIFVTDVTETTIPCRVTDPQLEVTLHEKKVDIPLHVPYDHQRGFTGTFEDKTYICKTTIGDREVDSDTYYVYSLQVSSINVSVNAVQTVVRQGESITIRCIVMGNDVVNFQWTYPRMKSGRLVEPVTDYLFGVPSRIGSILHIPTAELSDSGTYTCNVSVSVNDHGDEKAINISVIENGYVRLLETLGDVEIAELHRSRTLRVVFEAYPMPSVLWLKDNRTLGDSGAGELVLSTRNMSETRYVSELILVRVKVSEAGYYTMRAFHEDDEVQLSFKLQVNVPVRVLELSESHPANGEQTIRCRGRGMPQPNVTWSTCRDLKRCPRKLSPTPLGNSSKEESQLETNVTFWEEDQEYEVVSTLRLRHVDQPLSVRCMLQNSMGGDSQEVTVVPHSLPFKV
Experimental: (§1) 2C5 binds to domain 1 (D1) and domain 2 (D2) of PDGFRβ. Various chimeric constructs of PDGFRβ and PDGFRα were first made by domain swapping, starting from N-terminus to C-terminus with PDGFRβ domain(s) replacing PDGFRα domain(s). The PDGFRβ/α chimera were tested for the ability of 2C5 binding. Shorter versions of PDGFRβ, including D1D2, D2D3 and D1D2D3, were then made to confirm the 2C5 binding domains on PDGFRβ.

[2] = system: 3β2α; experiment: Epitope mapping, PDGFRβ/α chimera
Experimental: as §1

[3] = system: 4β1α; experiment: Epitope mapping, PDGFRβ/α chimera
Experimental: as §1

[4] = system: 2β3α; experiment: Epitope mapping, PDGFRβ/α chimera
Experimental: as §1, with “Various” for “2C5 binds to domain 1 (D1) and domain 2 (D2) of PDGFRβ. Various”

[5] = target: h5α (Homo sapiens, UniProt P16234); experiment: Epitope mapping
Chain of h5α (P16234 24-528 limits assumed): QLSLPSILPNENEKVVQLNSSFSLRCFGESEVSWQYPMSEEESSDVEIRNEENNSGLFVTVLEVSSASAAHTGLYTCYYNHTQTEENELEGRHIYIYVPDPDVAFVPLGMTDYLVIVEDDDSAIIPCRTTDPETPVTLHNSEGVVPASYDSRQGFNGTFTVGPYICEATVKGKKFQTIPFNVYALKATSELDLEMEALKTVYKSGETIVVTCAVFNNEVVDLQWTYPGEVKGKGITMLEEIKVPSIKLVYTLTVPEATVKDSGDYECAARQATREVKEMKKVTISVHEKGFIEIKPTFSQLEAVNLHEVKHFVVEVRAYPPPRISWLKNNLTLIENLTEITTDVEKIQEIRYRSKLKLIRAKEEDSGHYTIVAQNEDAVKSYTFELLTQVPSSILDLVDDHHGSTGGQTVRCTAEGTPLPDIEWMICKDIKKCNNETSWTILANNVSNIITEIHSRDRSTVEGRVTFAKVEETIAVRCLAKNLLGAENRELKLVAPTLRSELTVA
Experimental: as §1, with “Various” for “2C5 binds to domain 1 (D1) and domain 2 (D2) of PDGFRβ. Various”

[6] = system: β1-3; experiment: Epitope mapping, shorter version of PDGFRβ (D1D2D3)
Experimental: as §1

PDGF-BB: platelet-derived growth factor dimer, ligand of PDGFRβ and PDGFRα [reference compound]
✓: binding to m5β [1] | binding to 3β2α [2] | binding to 4β1α [3] | binding to 2β3α [4] | binding to h5α [5] | binding to β1-3 [6]
